Experimental findings from ChEMBL document CHEMBL1156730, “Structure-activity relationships of new inhibitors of breast cancer resistance protein (ABCG2)” (Bioorg Med Chem, 2008) are described below.

ATP-dependent translocase ABCB1, sequence (P08183 whole entry): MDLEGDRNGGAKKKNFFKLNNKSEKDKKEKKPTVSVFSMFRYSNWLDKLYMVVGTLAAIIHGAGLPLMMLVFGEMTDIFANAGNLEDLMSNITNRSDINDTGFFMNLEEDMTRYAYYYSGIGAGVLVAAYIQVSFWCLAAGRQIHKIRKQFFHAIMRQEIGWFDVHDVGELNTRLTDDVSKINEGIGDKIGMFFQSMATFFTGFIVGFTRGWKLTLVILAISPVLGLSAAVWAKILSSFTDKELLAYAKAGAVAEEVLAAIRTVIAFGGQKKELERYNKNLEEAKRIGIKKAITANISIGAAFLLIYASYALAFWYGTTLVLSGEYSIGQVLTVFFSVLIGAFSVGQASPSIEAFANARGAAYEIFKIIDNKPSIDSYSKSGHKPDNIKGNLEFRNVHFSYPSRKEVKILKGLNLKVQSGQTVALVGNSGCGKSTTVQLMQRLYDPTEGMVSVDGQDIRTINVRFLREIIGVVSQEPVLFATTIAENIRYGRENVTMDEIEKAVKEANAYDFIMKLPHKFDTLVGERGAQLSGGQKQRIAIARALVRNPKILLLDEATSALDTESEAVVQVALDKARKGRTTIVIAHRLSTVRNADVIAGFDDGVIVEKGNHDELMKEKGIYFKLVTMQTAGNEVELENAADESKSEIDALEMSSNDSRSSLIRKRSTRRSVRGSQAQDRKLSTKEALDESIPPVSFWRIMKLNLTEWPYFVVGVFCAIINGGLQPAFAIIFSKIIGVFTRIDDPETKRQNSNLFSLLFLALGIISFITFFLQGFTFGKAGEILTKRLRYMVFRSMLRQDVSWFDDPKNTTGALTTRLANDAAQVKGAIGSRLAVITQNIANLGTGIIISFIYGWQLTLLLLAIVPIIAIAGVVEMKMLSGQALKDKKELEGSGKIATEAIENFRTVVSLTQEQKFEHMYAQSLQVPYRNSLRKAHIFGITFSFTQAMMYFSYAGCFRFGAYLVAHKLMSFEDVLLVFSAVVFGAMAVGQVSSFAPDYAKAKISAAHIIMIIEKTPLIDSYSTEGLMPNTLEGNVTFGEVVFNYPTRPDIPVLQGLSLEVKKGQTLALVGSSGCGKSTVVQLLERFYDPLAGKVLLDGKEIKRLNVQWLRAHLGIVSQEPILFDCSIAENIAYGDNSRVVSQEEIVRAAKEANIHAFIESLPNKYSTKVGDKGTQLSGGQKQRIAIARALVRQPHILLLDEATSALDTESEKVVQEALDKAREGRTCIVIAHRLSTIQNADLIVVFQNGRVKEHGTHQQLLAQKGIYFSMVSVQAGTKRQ

One data set concerns the target ATP-dependent translocase ABCB1 (Homo sapiens, UniProt P08183). Briefly: Inhibition of P-gp in human adriamycin-resistant A2780 cells by Hoechst 33342 assay.
Details: not given; call rule not given here
The format is cell-based.
For the compound `COc1cc2c(cc1OC)CN(CCc1ccc(NC(=O)c3ccccc3)cc1)CC2`, the IC50 is 4.79 µM.
Compound `COc1cc2c(cc1OC)CN(CCc1ccc(NC(=O)c3cc(OC)c(OC)cc3NC(=O)c3cnc4ccccc4c3)cc1)CC2` gave an IC50 of 0.0724 µM.
On to `COc1cc2c(cc1OC)CN(CCc1ccc(NC(=O)C3Oc4ccccc4O3)cc1)CC2`, for which the IC50 was 1.41 µM.

Another data set deals with T1, Broad substrate specificity ATP-binding cassette transporter ABCG2 (Homo sapiens, UniProt Q9UNQ0).
T1 sequence (Q9UNQ0 whole entry): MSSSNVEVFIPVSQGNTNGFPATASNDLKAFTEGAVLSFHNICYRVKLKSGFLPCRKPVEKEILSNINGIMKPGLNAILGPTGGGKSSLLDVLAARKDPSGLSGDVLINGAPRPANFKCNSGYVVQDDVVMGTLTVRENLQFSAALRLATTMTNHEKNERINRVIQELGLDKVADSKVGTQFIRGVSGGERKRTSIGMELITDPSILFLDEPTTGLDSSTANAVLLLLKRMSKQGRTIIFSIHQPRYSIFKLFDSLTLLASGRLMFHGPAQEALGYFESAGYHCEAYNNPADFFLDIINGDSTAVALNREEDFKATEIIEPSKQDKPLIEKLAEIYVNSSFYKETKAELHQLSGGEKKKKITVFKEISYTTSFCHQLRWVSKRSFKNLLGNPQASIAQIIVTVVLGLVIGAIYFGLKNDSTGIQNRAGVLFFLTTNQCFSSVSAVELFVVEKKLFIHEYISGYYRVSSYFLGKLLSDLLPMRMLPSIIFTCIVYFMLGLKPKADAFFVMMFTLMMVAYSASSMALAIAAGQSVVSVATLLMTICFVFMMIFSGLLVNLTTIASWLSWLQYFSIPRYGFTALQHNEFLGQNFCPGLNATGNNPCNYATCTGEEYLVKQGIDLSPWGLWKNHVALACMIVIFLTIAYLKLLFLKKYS
In words: Inhibition of ABCG2 in human mitoxantrone-resistant MCF7 cells by Hoechst 33342 assay using linear regression analysis.
Details: not given
The format is cell-based.
The compound `O=C(Nc1ccccc1C(=O)Nc1ccc(CCN2CCc3ccccc3C2)cc1)c1cnc2ccccc2c1` showed an IC50 of 0.832 µM.

The next data set deals with T1, Broad substrate specificity ATP-binding cassette transporter ABCG2. In words: Inhibition of ABCG2 in human mitoxantrone-resistant MCF7 cells by Hoechst 33342 assay using one phase exponential association analysis. The format is cell-based.
Details: not given
With `O=C(Nc1ccccc1C(=O)Nc1ccc(CCN2CCc3ccccc3C2)cc1)c1cnc2ccccc2c1`, the IC50 is 0.676 µM.

The next data set shares this target. In words: Inhibition of ABCG2 in human mitoxantrone-resistant MCF7 cells at 5.6 uM by Hoechst 33342 assay. The format is cell-based. The note with it: mcf7, 5.6 µM.
As to `O=C(Nc1ccccc1C(=O)Nc1ccc(CCN2CCc3ccccc3C2)cc1)c1cnc2ccccc2c1`, the result was Active.

The target is the same in another data set. In words: Inhibition of ABCG2 in human mitoxantrone-resistant MCF7 cells by Hoechst 33342 assay. The format is cell-based.
Details: not given
For `CC(=O)[C@H]1CC[C@H]2[C@@H]3CCC4=CC(=O)CC[C@]4(C)[C@H]3CC[C@]12C` [PROGESTERONE], the IC50 is 126 µM.
Compound `COc1ccc([C@@H]2Sc3ccccc3N(CCN(C)C)C(=O)[C@@H]2OC(C)=O)cc1` [DILTIAZEM] had an IC50 of 851 µM.
For `COc1cc2c(cc1OC)CN(CCc1ccc(NC(=O)c3ccnc4ccccc34)cc1)CC2`, the IC50 was 36.3 µM.
The same measure, in the same setting: under `COc1cc2c(cc1OC)CN(CCc1ccc(NC(=O)c3ccc4ccccc4c3)cc1)CC2` stands 7.24 µM.
In turn, `COc1cc2c(cc1OC)CN(CCc1ccc(NC(=O)c3ccccc3)cc1)CC2` had an IC50 of 24.5 µM.
Still for that read-out and setting: under `COc1cc2c(cc1OC)CN(CCc1ccc(NC(=O)c3ccc(Br)cc3)cc1)CC2` stands 11.5 µM.
The compound `COc1cc2c(cc1OC)CN(CCc1ccc(NC(=O)c3ccccc3N)cc1)CC2` had an IC50 of 85.1 µM.
Compound `COc1cc2c(cc1OC)CN(CCc1ccc(NC(=O)c3ccccc3NC(=O)c3ccccc3)cc1)CC2` showed an IC50 of 3.98 µM.
In the case of `COc1cc2c(cc1OC)CN(CCc1ccc(NC(=O)c3cc4ccccc4cn3)cc1)CC2`, the IC50 is 6.03 µM.
On to `COc1cc2c(cc1OC)CN(CCc1ccc(NC(=O)c3cnc4ccccc4n3)cc1)CC2`, for which the IC50 is 6.03 µM.
In turn, `COc1cc2c(cc1OC)CN(CCc1ccc(NC(=O)c3cccc(Br)c3)cc1)CC2` showed an IC50 of 22.9 µM.
The same measure, in the same setting: under `COc1ccc(CCN(C)CCCC(C#N)(c2ccc(OC)c(OC)c2)C(C)C)cc1OC` (stereo unspecified) stands 525 µM; under `COc1cc2c(cc1OC)CN(CCc1ccc(NC(=O)c3ccc([N+](=O)[O-])cc3)cc1)CC2`, 7.59 µM.
`COC(=O)[C@H]1[C@H]2C[C@@H]3c4[nH]c5cc(OC)ccc5c4CCN3C[C@H]2C[C@@H](OC(=O)c2cc(OC)c(OC)c(OC)c2)[C@@H]1OC` [RESERPINE] had an IC50 of 26.3 µM.
Compound `O=C(Nc1ccc(CCN2CCc3ccccc3C2)cc1)c1ccccc1[N+](=O)[O-]` showed an IC50 of 79.4 µM.
In turn, `COc1cc2c(cc1OC)CN(CCc1ccc(NC(=O)c3cc(OC)c(OC)cc3[N+](=O)[O-])cc1)CC2` had an IC50 of 64.6 µM.
`COc1cc2c(cc1OC)CN(CCc1ccc(NC(=O)c3ccccc3NC(=O)c3ccc(C)cc3)cc1)CC2` showed an IC50 of 3.89 µM.
Still for that read-out and setting: as for `Nc1ccc(C(=O)Nc2ccc(CCN3CCc4ccccc4C3)cc2)cc1`, the figure is 77.6 µM.
On the same count and under the same terms, as for `COc1cc2c(cc1OC)CN(CCc1ccc(NC(=O)c3ccccc3Br)cc1)CC2`, the figure is 21.9 µM; as for `COc1cc2c(cc1OC)CN(CCc1ccc(NC(=O)c3cc(OC)c(OC)cc3NC(=O)c3cnc4ccccc4c3)cc1)CC2`, 1.45 µM.
Still for that read-out and setting: under `COc1ccc(C(=O)Nc2ccccc2C(=O)Nc2ccc(CCN3CCc4cc(OC)c(OC)cc4C3)cc2)cc1OC` stands 2.09 µM; under `COc1cc2c(cc1OC)CN(CCc1ccc(NC(=O)c3cccc4ccccc34)cc1)CC2`, 12.9 µM; under `COc1cc2c(cc1OC)CN(CCc1ccc(NC(=O)c3ccccc3NC(=O)c3cnc4ccccc4c3)cc1)CC2`, 5.01 µM.
For the compound `COC(=O)C1=C(C)NC(C)=C(C(=O)OCCN(C)Cc2ccccc2)C1c1cccc([N+](=O)[O-])c1` (stereo unspecified) [NICARDIPINE], the IC50 was 16.6 µM.
On to `COc1cc2c(cc1OC)CN(CCc1ccc(NC(=O)c3cccnc3)cc1)CC2`, for which the IC50 is 44.7 µM.
For `O=C(Nc1ccc(CCN2CCc3ccccc3C2)cc1)c1cnc2ccccc2c1`, the IC50 is 5.01 µM.
`Nc1ccccc1C(=O)Nc1ccc(CCN2CCc3ccccc3C2)cc1` showed an IC50 of 74.1 µM.
On the same count and under the same terms, as for `O=C(Nc1ccccc1C(=O)Nc1ccc(CCN2CCc3ccccc3C2)cc1)c1cnc2ccccc2c1`, the figure is 1 µM; as for `COc1cc2c(cc1OC)CN(CCc1ccc(NC(=O)c3ccccc3[N+](=O)[O-])cc1)CC2`, 110 µM; as for `COc1cc2c(cc1OC)CN(CCc1ccc(NC(=O)C3Oc4ccccc4O3)cc1)CC2`, 15.1 µM.
In turn, `COc1ccc(C(=O)Nc2ccc(CCN3CCc4cc(OC)c(OC)cc4C3)cc2)cc1OC` had a 50% inhibitory concentration (IC50) of 47.9 µM.
Compound `COc1cc2c(cc1OC)CN(CCc1ccc(NC(=O)c3ccc(N)cc3)cc1)CC2` gave an IC50 of 263 µM.
`COc1cc2c(cc1OC)CN(CCc1ccc(NC(=O)c3cnc4ccccc4c3)cc1)CC2` gave an IC50 of 24 µM.
Regarding `O=C(Nc1ccc(CCN2CCc3ccccc3C2)cc1)c1ccc([N+](=O)[O-])cc1`, the IC50 is 6.61 µM.
The same measure, in the same setting: as for `COc1cc2c(cc1OC)CN(CCc1ccc(NC(=O)c3ccc4ncccc4c3)cc1)CC2`, the figure is 14.5 µM.
